Results on eleven compounds are retold here after patent publication US11986532B2 (Arvinas Operations, Inc., priority 2021, dated 2024).

In the experiment the target is T1, BCL6 (Homo sapiens, UniProt P41182).
T1 construct: endogenous in cells; host or cells: T47D breast cancer epithelial cells
The experiment in a line: Immunofluorescence protocol for high content imaging of BCL6 (degradation) in T47D cells, 3 days compound treatment. It is filed as cell-based. Particulars: for Dmax: T47D, read-out: Mean Dmax (%)** category; for DC50: read-out: Mean DC50 (nM)* category. Put shortly:
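Read-out: high-content imaging of anti-BCL6 immunofluorescence (Alexa-488 secondary) with CellMask and Hoechst counterstains, 10×, 4 fields/well. Cells had 3 days of compound exposure at 37° C, 5% CO2, 11-point 3-fold series from a final top of 0.1 or 1 μM.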

As usually defined, the Dmax is the greatest extent of degradation seen. In general, DC50 refers to the concentration at which degradation of the target reaches its halfway point. On to `CNC(=O)COc1cc2cc(Nc3cc(N4CCC(CN5CCC6(CC5)CN(c5ccc7c(c5)CN(C5CCC(=O)NC5=O)C7=O)C6)CC4)ncc3Cl)ccc2n(C(C)C)c1=O` (stereo not shown) [Compound 321, 2-{[6-({5-chloro-2-[4-({2-[2-(2,6-dioxopiperidin-3-yl)-1-oxo-2,3-dihydro-1H-isoindol-5-yl]-2,7-diazaspiro[3.5]nonan-7-yl}methyl)piperidin-1-yl]pyridin-4-yl}amino)-2-oxo-1-(propan-2-yl)-1,2-dihydroquinolin-3-yl]oxy}-N-methylacetamide], for which the Dmax is 50 to 70% and the 50% degradation concentration (DC50) is under 10 nM.
For `CNC(=O)COc1cc2cc(Nc3nc(N4CCC(CN5CCN(c6ccc7c(c6F)CN(C6CCC(=O)NC6=O)C7=O)CC5)CC4)ncc3Cl)ccc2n(C(C)C)c1=O` (stereo not shown) [Compound 322, 2-{[6-({5-chloro-2-[4-({4-[2-(2,6-dioxopiperidin-3-yl)-4-fluoro-1-oxo-2,3-dihydro-1H-isoindol-5-yl]piperazin-1-yl}methyl)piperidin-1-yl]pyrimidin-4-yl}amino)-2-oxo-1-(propan-2-yl)-1,2-dihydroquinolin-3-yl]oxy}-N-methylacetamide], in that order: 50 to 70% and under 10 nM.
With `CNC(=O)COc1cc2cc(Nc3nc(N4CCC(O[C@H]5C[C@H](N6CC=C(c7ccc8c(c7)CN(C7CCC(=O)NC7=O)C8=O)CC6)C5)CC4)ncc3Cl)ccc2n(C(C)C)c1=O` (stereo partly shown) [Compound 323, 2-({6-[(5-chloro-2-{4-[(1r,3r)-3-{4-[2-(2,6-dioxopiperidin-3-yl)-1-oxo-2,3-dihydro-1H-isoindol-5-yl]-1,2,3,6-tetrahydropyridin-1-yl}cyclobutoxy]piperidin-1-yl}pyrimidin-4-yl)amino]-2-oxo-1-(propan-2-yl)-1,2-dihydroquinolin-3-yl}oxy)-N-methylacetamide], the Dmax was 50 to 70% and the DC50 is under 10 nM.
For `CNC(=O)COc1cc2cc(Nc3nc(N4CCC(OC5CCC6(CC5)CN(c5c(F)cc7c(c5F)CN(C5CCC(=O)NC5=O)C7=O)C6)CC4)ncc3Cl)ccc2n(C(C)C)c1=O` (stereo not shown) [Compound 324, 2-{[6-({5-chloro-2-[4-({2-[2-(2,6-dioxopiperidin-3-yl)-4,6-difluoro-1-oxo-2,3-dihydro-1H-isoindol-5-yl]-2-azaspiro[3.5]nonan-7-yl}oxy)piperidin-1-yl]pyrimidin-4-yl}amino)-2-oxo-1-(propan-2-yl)-1,2-dihydroquinolin-3-yl]oxy}-N-methylacetamide], the Dmax is 50 to 70% and the DC50 was under 10 nM.
As for `CNC(=O)COc1cc2cc(Nc3nc(N4CCC(CN5CCC6(CN(c7cccc8c7C(=O)N(C7CCC(=O)NC7=O)C8=O)C6)C(F)C5)CC4)ncc3Cl)ccc2n(C(C)C)c1=O` (stereo not shown) [Compound 325, 2-{[6-({5-chloro-2-[4-({2-[2-(2,6-dioxopiperidin-3-yl)-1,3-dioxo-2,3-dihydro-1H-isoindol-4-yl]-5-fluoro-2,7-diazaspiro[3.5]nonan-7-yl}methyl)piperidin-1-yl]pyrimidin-4-yl}amino)-2-oxo-1-(propan-2-yl)-1,2-dihydroquinolin-3-yl]oxy}-N-methylacetamide], the Dmax fell in the range of 50 to 70% and the DC50 was under 10 nM.
In the same order, the values of `CNC(=O)COc1cc2cc(Nc3nc(N4CCC(CN5CCC6(CN(c7cccc8c7CN(C7CCC(=O)NC7=O)C8=O)C6)C(F)C5)CC4)ncc3Cl)ccc2n(C(C)C)c1=O` (stereo not shown) [Compound 326, 2-{[6-({5-chloro-2-[4-({2-[2-(2,6-dioxopiperidin-3-yl)-1-oxo-2,3-dihydro-1H-isoindol-4-yl]-5-fluoro-2,7-diazaspiro[3.5]nonan-7-yl}methyl)piperidin-1-yl]pyrimidin-4-yl}amino)-2-oxo-1-(propan-2-yl)-1,2-dihydroquinolin-3-yl]oxy}-N-methylacetamide] are at least 70% and under 10 nM.
In the case of `CNC(=O)COc1cc2cc(Nc3nc(N4CCC(C(C)(C)N5CCC6(CC5)CN(c5c(OC)ccc7c5CN(C5CCC(=O)NC5=O)C7=O)C6)CC4)ncc3Cl)ccc2n(C(C)C)c1=O` (stereo not shown) [Compound 327, 2-{[6-({5-chloro-2-[4-(2-{2-[2-(2,6-dioxopiperidin-3-yl)-5-methoxy-1-oxo-2,3-dihydro-1H-isoindol-4-yl]-2,7-diazaspiro[3.5]nonan-7-yl}propan-2-yl)piperidin-1-yl]pyrimidin-4-yl}amino)-2-oxo-1-(propan-2-yl)-1,2-dihydroquinolin-3-yl]oxy}-N-methylacetamide], the Dmax is at least 70% and the DC50 was under 10 nM.
With `CNC(=O)COc1cc2cc(Nc3nc(N4CCC(C(C)(C)N5CCC6(CC5)CN(c5cc(OC)cc7c5CN(C5CCC(=O)NC5=O)C7=O)C6)CC4)ncc3Cl)ccc2n(C(C)C)c1=O` (stereo not shown) [Compound 328, 2-{[6-({5-chloro-2-[4-(2-{2-[2-(2,6-dioxopiperidin-3-yl)-6-methoxy-1-oxo-2,3-dihydro-1H-isoindol-4-yl]-2,7-diazaspiro[3.5]nonan-7-yl}propan-2-yl)piperidin-1-yl]pyrimidin-4-yl}amino)-2-oxo-1-(propan-2-yl)-1,2-dihydroquinolin-3-yl]oxy}-N-methylacetamide], the Dmax fell in the range of 50 to 70% and the DC50 was under 10 nM.
`CNC(=O)COc1cc2cc(Nc3nc(N4CCC(O[C@H]5C[C@H](N6CCC(c7cc8c(cc7Cl)C(=O)N(C7CCC(=O)NC7=O)C8)CC6)C5)CC4)ncc3Cl)ccc2n(C(C)C)c1=O` (stereo partly shown) [Compound 329, 2-({6-[(5-chloro-2-{4-[(1r,3r)-3-{4-[6-chloro-2-(2,6-dioxopiperidin-3-yl)-1-oxo-2,3-dihydro-1H-isoindol-5-yl]piperidin-1-yl}cyclobutoxy]piperidin-1-yl}pyrimidin-4-yl)amino]-2-oxo-1-(propan-2-yl)-1,2-dihydroquinolin-3-yl}oxy)-N-methylacetamide]: the Dmax lay in the range of 50 to 70% and the DC50 was under 10 nM.
On to `CNC(=O)COc1cc2cc(Nc3nc(N4CCC(O[C@H]5C[C@H](N6CC7(CCN7c7ccc8c(c7)C(=O)N(C7CCC(=O)NC7=O)C8)C6)C5)CC4)ncc3Cl)ccc2n(C(C)C)c1=O` (stereo partly shown) [Compound 330, 2-({6-[(5-chloro-2-{4-[(1r,3r)-3-{1-[2-(2,6-dioxopiperidin-3-yl)-3-oxo-2,3-dihydro-1H-isoindol-5-yl]-1,6-diazaspiro [3.3]heptan-6-yl}cyclobutoxy]piperidin-1-yl}pyrimidin-4-yl)amino]-2-oxo-1-(propan-2-yl)-1,2-dihydroquinolin-3-yl}oxy)-N-methylacetamide], for which the maximal degradation (Dmax) was under 50% and the 50% degradation concentration (DC50) fell in the range of 10 to 50 nM.
In the same order, the values of `CNC(=O)COc1cc2cc(Nc3nc(N4CCN(CC5CCC6(CC5)CN(c5ccc7c(c5OC)CN(C5CCC(=O)NC5=O)C7=O)C6)CC4)ncc3Cl)ccc2n(C(C)C)c1=O` (stereo not shown) [Compound 331, 2-{[6-({5-chloro-2-[4-({2-[2-(2,6-dioxopiperidin-3-yl)-4-methoxy-1-oxo-2,3-dihydro-1H-isoindol-5-yl]-2-azaspiro[3.5]nonan-7-yl}methyl)piperazin-1-yl]pyrimidin-4-yl}amino)-2-oxo-1-(propan-2-yl)-1,2-dihydroquinolin-3-yl]oxy}-N-methylacetamide] are 50 to 70% and 10 to 50 nM.
